ChEMBL document CHEMBL1155271, “Synthesis, crystal structures and antibacterial activity studies of aza-derivatives of phytoalexin from cotton plant--gossypol” (2009)
Converted amounts (≈) assume the structure as drawn. The source made the active and inactive calls. No cut-off for these calls is given here.

What was measured:
Assay type in all cases: functional
Staphylococcus aureus [1] = assay: Antimicrobial activity against methicillin-resistant Staphylococcus aureus 217/7 by twofold dilution technique
Staphylococcus aureus [2] = assay: Antimicrobial activity against methicillin-resistant Staphylococcus aureus 218/7 by twofold dilution technique
Enterococcus hirae [3] = assay: Antimicrobial activity against Enterococcus hirae ATCC 10541 after 18 hrs by twofold dilution technique; details: ATCC 10541, 18 h
Bacillus subtilis [4] = assay: Antimicrobial activity against Bacillus subtilis ATCC 6633 after 18 hrs by twofold dilution technique; details: ATCC 6633, 18 h
Micrococcus luteus [5] = assay: Antimicrobial activity against Micrococcus luteus ATCC 9341 after 18 hrs by twofold dilution technique; details: ATCC 9341, 18 h
Staphylococcus aureus [6] = assay: Antimicrobial activity against methicillin-resistant Staphylococcus aureus 136/6 by twofold dilution technique
Bacillus cereus [7] = assay: Antimicrobial activity against Bacillus cereus ATCC 11778 at 400 ug after 18 hrs by disk diffusion method; details: ATCC 11778, 18 h, read-out: DIZ
Staphylococcus aureus [8] = assay: Antimicrobial activity against methicillin-resistant Staphylococcus aureus 236/7 by twofold dilution technique
Staphylococcus aureus [9] = assay: Antimicrobial activity against Staphylococcus aureus NCTC 4163 at 400 ug after 18 hrs by disk diffusion method; details: NCTC 4163, 18 h, read-out: DIZ
Staphylococcus aureus [10] = assay: Antimicrobial activity against Methicillin susceptible Staphylococcus aureus 208/7 by twofold dilution technique
Bacillus subtilis [11] = assay: Antimicrobial activity against Bacillus subtilis ATCC 6633 at 400 ug after 18 hrs by disk diffusion method; details: ATCC 6633, 18 h, read-out: DIZ
Staphylococcus aureus [12] = assay: Antimicrobial activity against Methicillin susceptible Staphylococcus aureus 238/7 by twofold dilution technique
Staphylococcus aureus [13] = assay: Antimicrobial activity against Methicillin susceptible Staphylococcus aureus 207/7 by twofold dilution technique
[14] = test system: Staphylococcus epidermidis; assay: Antimicrobial activity against Staphylococcus epidermidis ATCC 12228 by twofold dilution technique
Staphylococcus aureus [15] = assay: Antimicrobial activity against methicillin-resistant Staphylococcus aureus 200/7 by twofold dilution technique
Staphylococcus aureus [16] = assay: Antimicrobial activity against Staphylococcus aureus ATCC 6538 at 400 ug after 18 hrs by disk diffusion method; details: ATCC 6538, 18 h, read-out: DIZ
Staphylococcus aureus [17] = assay: Antimicrobial activity against methicillin-resistant Staphylococcus aureus 140/6 by twofold dilution technique
Staphylococcus aureus [18] = assay: Antimicrobial activity against Methicillin susceptible Staphylococcus aureus 243/7 by twofold dilution technique
Staphylococcus aureus [19] = assay: Antimicrobial activity against Staphylococcus aureus NCTC 4163 after 18 hrs by twofold dilution technique; details: NCTC 4163, 18 h
Staphylococcus aureus [20] = assay: Antimicrobial activity against Staphylococcus aureus ATCC 25923 at 400 ug after 18 hrs by disk diffusion method; details: ATCC 25923, 18 h, read-out: DIZ
Staphylococcus aureus [21] = assay: Antimicrobial activity against Methicillin susceptible Staphylococcus aureus 239/7 by twofold dilution technique
Staphylococcus aureus [22] = assay: Antimicrobial activity against methicillin-resistant Staphylococcus aureus 146/6 by twofold dilution technique
Staphylococcus aureus [23] = assay: Antimicrobial activity against Methicillin susceptible Staphylococcus aureus 213/7 by twofold dilution technique
Enterococcus hirae [24] = assay: Antimicrobial activity against Enterococcus hirae ATCC 10541 at 400 ug after 18 hrs by disk diffusion method
Staphylococcus aureus [25] = assay: Antimicrobial activity against Methicillin susceptible Staphylococcus aureus 212/7 by twofold dilution technique
Staphylococcus aureus [26] = assay: Antimicrobial activity against Methicillin susceptible Staphylococcus aureus 206/7 by twofold dilution technique
Bacillus cereus [27] = assay: Antimicrobial activity against Bacillus cereus ATCC 11778 after 18 hrs by twofold dilution technique; details: ATCC 11778, 18 h
Staphylococcus aureus [28] = assay: Antimicrobial activity against Methicillin susceptible Staphylococcus aureus 237/7 by twofold dilution technique
Staphylococcus aureus [29] = assay: Antimicrobial activity against Methicillin susceptible Staphylococcus aureus 242/7 by twofold dilution technique
Staphylococcus aureus [30] = assay: Antimicrobial activity against Staphylococcus aureus ATCC 29213 after 18 hrs by twofold dilution technique; details: ATCC 29213, 18 h
[31] = test system: Staphylococcus epidermidis; assay: Antimicrobial activity against Staphylococcus epidermidis ATCC 12228 at 400 ug after 18 hrs by disk diffusion method; details: ATCC 12228, 18 h, read-out: DIZ
Micrococcus luteus [32] = assay: Antimicrobial activity against Micrococcus luteus ATCC 9341 at 400 ug after 18 hrs by disk diffusion method
Staphylococcus aureus [33] = assay: Antimicrobial activity against methicillin-resistant Staphylococcus aureus 144/6 by twofold dilution technique
Micrococcus luteus [34] = assay: Antimicrobial activity against Micrococcus luteus ATCC 10240 by twofold dilution technique
Staphylococcus aureus [35] = assay: Antimicrobial activity against Staphylococcus aureus ATCC 29213 at 400 ug after 18 hrs by disk diffusion method; details: ATCC 29213, 18 h, read-out: DIZ
Staphylococcus aureus [36] = assay: Antimicrobial activity against Staphylococcus aureus ATCC 25923 after 18 hrs by twofold dilution technique; details: ATCC 25923, 18 h
Micrococcus luteus [37] = assay: Antimicrobial activity against Micrococcus luteus ATCC 10240 at 400 ug after 18 hrs by disk diffusion method; details: ATCC 10240, 18 h, read-out: DIZ
Staphylococcus aureus [38] = assay: Antimicrobial activity against Staphylococcus aureus ATCC 6538 after 18 hrs by twofold dilution technique; details: ATCC 6538, 18 h
Staphylococcus aureus [39] = assay: Antimicrobial activity against methicillin-resistant Staphylococcus aureus 143/6 by twofold dilution technique
Staphylococcus aureus [40] = assay: Antimicrobial activity against methicillin-resistant Staphylococcus aureus 141/6 by twofold dilution technique

Compound	MIC (Staphylococcus aureus [1])	MIC (Staphylococcus aureus [2])	MIC (Enterococcus hirae [3])	MIC (Bacillus subtilis [4])	MIC (Micrococcus luteus [5])	MIC (Staphylococcus aureus [6])	zone of inhibition at 400 µg/disc (Bacillus cereus [7])	MIC (Staphylococcus aureus [8])	zone of inhibition at 400 µg/disc (Staphylococcus aureus [9])	MIC (Staphylococcus aureus [10])	zone of inhibition at 400 µg/disc (Bacillus subtilis [11])	MIC (Staphylococcus aureus [12])	MIC (Staphylococcus aureus [13])	MIC [14]	MIC (Staphylococcus aureus [15])	zone of inhibition at 400 µg/disc (Staphylococcus aureus [16])	MIC (Staphylococcus aureus [17])	MIC (Staphylococcus aureus [18])	MIC (Staphylococcus aureus [19])	zone of inhibition at 400 µg/disc (Staphylococcus aureus [20])	also measured
Cc1cc2c(C(C)C)c(O)c(O)c(/C=N/N3CCN(CCO)CC3)c2c(O)c1-c1c(C)cc2c(C(C)C)c(O)c(O)c(/C=N/N3CCN(CCO)CC3)c2c1O	50 µg/mL (≈ 64.7 µM)	50 µg/mL (≈ 64.7 µM)	50 µg/mL (≈ 64.7 µM)	100 µg/mL (≈ 129 µM)	50 µg/mL (≈ 64.7 µM)	50 µg/mL (≈ 64.7 µM)	12 mm	25 µg/mL (≈ 32.3 µM)	13 mm	50 µg/mL (≈ 64.7 µM)	12 mm	25 µg/mL (≈ 32.3 µM)	50 µg/mL (≈ 64.7 µM)	200 µg/mL (≈ 259 µM)	50 µg/mL (≈ 64.7 µM)	12 mm	50 µg/mL (≈ 64.7 µM)	25 µg/mL (≈ 32.3 µM)	50 µg/mL (≈ 64.7 µM)	13 mm	MIC (Staphylococcus aureus [21]): 25 µg/mL (≈ 32.3 µM); MIC (Staphylococcus aureus [22]): 50 µg/mL (≈ 64.7 µM); MIC (Staphylococcus aureus [23]): 50 µg/mL (≈ 64.7 µM); diameter of the inhibition zone (DIZ) (Enterococcus hirae [24]): inactive; MIC (Staphylococcus aureus [25]): 50 µg/mL (≈ 64.7 µM); MIC (Staphylococcus aureus [26]): 25 µg/mL (≈ 32.3 µM); MIC (Bacillus cereus [27]): 25 µg/mL (≈ 32.3 µM); MIC (Staphylococcus aureus [28]): 25 µg/mL (≈ 32.3 µM); MIC (Staphylococcus aureus [29]): 12.5 µg/mL (≈ 16.2 µM); MIC (Staphylococcus aureus [30]): 25 µg/mL (≈ 32.3 µM); zone of inhibition at 400 µg/disc [31]: 14 mm; diameter of the inhibition zone (DIZ) (Micrococcus luteus [32]): inactive; MIC (Staphylococcus aureus [33]): 50 µg/mL (≈ 64.7 µM); MIC (Micrococcus luteus [34]): 50 µg/mL (≈ 64.7 µM); zone of inhibition at 400 µg/disc (Staphylococcus aureus [35]): 12 mm; MIC (Staphylococcus aureus [36]): 50 µg/mL (≈ 64.7 µM); zone of inhibition at 400 µg/disc (Micrococcus luteus [37]): 15 mm; MIC (Staphylococcus aureus [38]): 25 µg/mL (≈ 32.3 µM); MIC (Staphylococcus aureus [39]): 50 µg/mL (≈ 64.7 µM); MIC (Staphylococcus aureus [40]): 50 µg/mL (≈ 64.7 µM)
Cc1cc2c(c(O)c1-c1c(C)cc3c(c1O)/C(=C/NCCc1cccs1)C(=O)C(O)=C3C(C)C)/C(=C/NCCc1cccs1)C(=O)C(O)=C2C(C)C	100 µg/mL (≈ 136 µM)	50 µg/mL (≈ 67.8 µM)	50 µg/mL (≈ 67.8 µM)	100 µg/mL (≈ 136 µM)	50 µg/mL (≈ 67.8 µM)	50 µg/mL (≈ 67.8 µM)	15 mm	50 µg/mL (≈ 67.8 µM)	18 mm	50 µg/mL (≈ 67.8 µM)	16 mm	50 µg/mL (≈ 67.8 µM)	50 µg/mL (≈ 67.8 µM)	100 µg/mL (≈ 136 µM)	50 µg/mL (≈ 67.8 µM)	17 mm	50 µg/mL (≈ 67.8 µM)	50 µg/mL (≈ 67.8 µM)	50 µg/mL (≈ 67.8 µM)	18 mm	MIC (Staphylococcus aureus [21]): 50 µg/mL (≈ 67.8 µM); MIC (Staphylococcus aureus [22]): 50 µg/mL (≈ 67.8 µM); MIC (Staphylococcus aureus [23]): 25 µg/mL (≈ 33.9 µM); zone of inhibition at 400 µg/disc (Enterococcus hirae [24]; ATCC 10541, 18 h, read-out: DIZ): 14 mm; MIC (Staphylococcus aureus [25]): 25 µg/mL (≈ 33.9 µM); MIC (Staphylococcus aureus [26]): 25 µg/mL (≈ 33.9 µM); MIC (Bacillus cereus [27]): 50 µg/mL (≈ 67.8 µM); MIC (Staphylococcus aureus [28]): 50 µg/mL (≈ 67.8 µM); MIC (Staphylococcus aureus [29]): 12.5 µg/mL (≈ 17 µM); MIC (Staphylococcus aureus [30]): 25 µg/mL (≈ 33.9 µM); zone of inhibition at 400 µg/disc [31]: 21 mm; zone of inhibition at 400 µg/disc (Micrococcus luteus [32]; ATCC 9341, 18 h, read-out: DIZ): 12 mm; MIC (Staphylococcus aureus [33]): 50 µg/mL (≈ 67.8 µM); MIC (Micrococcus luteus [34]): 50 µg/mL (≈ 67.8 µM); zone of inhibition at 400 µg/disc (Staphylococcus aureus [35]): 18 mm; MIC (Staphylococcus aureus [36]): 25 µg/mL (≈ 33.9 µM); zone of inhibition at 400 µg/disc (Micrococcus luteus [37]): 19 mm; MIC (Staphylococcus aureus [38]): 25 µg/mL (≈ 33.9 µM); MIC (Staphylococcus aureus [39]): 50 µg/mL (≈ 67.8 µM); MIC (Staphylococcus aureus [40]): 50 µg/mL (≈ 67.8 µM)
